Data from ChEMBL document CHEMBL3352781, “Synthesis, antileishmanial and antitrypanosomal activities of N-substituted tetrahydro-β-carbolines” (Bioorg Med Chem Lett, 2014).
pIC50: −log10 of the molar value. Activity calls are given as the source filed them. No cut-off for these calls is given here.

Assays:
[1] = system: Trypanosoma brucei; assay: Antimicrobial activity against trypamastigote stage of Trypanosoma brucei after 72 hrs by Alamar Blue assay; format: functional, organism-based
[2] = system: HepG2; assay: Cytotoxicity against human HepG2 cells after 48 hrs by neutral red assay; format: cell-based; details: HepG2, 48 h
[3] = system: LLC-PK1; assay: Cytotoxicity against pig LLC-PK1 cells after 48 hrs by neutral red assay; format: cell-based; details: Sus scrofa, LLC-PK1, 48 h
[4] = system: Leishmania donovani; assay: Antimicrobial activity against promastigote stage of Leishmania donovani infected in human THP1 cells after 72 hrs by Alamar Blue assay; format: functional, organism-based
[5] = system: THP-1; assay: Cytotoxicity against human THP1 cells up to 10 ug/ml after 48 hrs by neutral red assay; format: cell-based; details: thp-1, 48 h
[6] = system: Leishmania donovani; assay: Antimicrobial activity against promastigote stage of Leishmania donovani after 72 hrs by Alamar Blue assay; format: functional, organism-based; details: Leishmania donovani, 72 h; for pIC50: read-out: IC50
[7] = system: Leishmania donovani; assay: Antimicrobial activity against axenic amastigote stage of Leishmania donovani after 72 hrs by Alamar Blue assay; format: functional, organism-based; details: Leishmania donovani, 72 h; for pIC50: read-out: IC50
[8] = system: Leishmania infantum; assay: Antimicrobial activity against promastigote stage of Leishmania infantum; format: functional, organism-based
[9] = system: Leishmania infantum; assay: Antimicrobial activity against amastigote stage of Leishmania infantum; format: functional, organism-based
[10] = system: Trypanosoma brucei brucei; assay: Antimicrobial activity against bloodstream form of Trypanosoma brucei brucei TC221; format: functional, organism-based

SMILES | IC50 [1] | IC90 [1] | pIC50 [2] | pIC50 [3] | IC90 ([4]; THP-1) | IC50 ([4]; thp-1) | Activity [5] | IC90 [6] | pIC50 [6] | IC90 [7] | pIC50 [7] | pIC50 ([1]; Trypanosoma brucei, 72 h, read-out: IC50) | pIC50 [8] | pIC50 [9] | pIC50 [10]
O=C(c1ccc([N+](=O)[O-])s1)N1CCc2c([nH]c3ccccc23)C1 | Not Active | inactive | 4.20 | 4.25 | inactive | Not Active | Non-toxic | 36.6 µM | 4.90 | 107 µM | 4.20 |  |  |  | 
COc1ccc2c(c1)[nH]c1c(C)nccc12 [HARMINE] |  |  |  |  |  |  |  |  | 5.43 |  | 6.64 | 4.13 | 5.43 | 6.64 | 4.13
